Measurements: US10350213B2 (AI Therapeutics, Inc., priority 2015, dated 2019)

What was measured:
Assay in all cases: CellTiterGlo cell viability assay
Format in all cases: cell-based
[1] = tested on: KG-1 (Human acute myelogenous leukemia)
Experimental: (§1) Briefly, test compounds (5 μl stock solution, 6×desired final well concentration) were dispensed to 384-well assay plates, TSC2−/− MEF cells (1000 cells per well in 25 μL of media) were added to the plates and the plates were incubated for 72 h (3 days) at 37° C. under an atmosphere of 5% CO2 in a humidified incubator for 3 days. Cell viability was determined with CellTiter-Glo® luminescence assay (Promega) per the manufacturer's instructions. Viability was expressed as a percentage of untreated control cells.
(§2) 35 cell lines were identified as sensitive to apilimod-induced cytotoxicity in this assay. The apilimod-sensitive cells included cells derived from several different cancers including non-Hodgkin's lymphoma, Hodgkin's lymphoma, colorectal cancer, and lung cancer. The most sensitive of those tested were non-Hodgkin's Lymphoma (NHL) cell lines. […] The only NHL subtype not sensitive in this assay was follicular.

[2] = tested on: DB (Human B-cell lymphoma); details: Human DLBCL-GCB
Experimental: as §1, §2

[3] = tested on: SW1573 (Human bronchioalveolar)
Experimental: as §1, §2

[4] = tested on: L540 (Human Hodgkin's lymphoma); details: L-540
Experimental: as §1, §2

[5] = tested on: DOHH-2 (Human Follicular B Cell Lymphoma-GCB); details: Human Follicular Lymphoma - DLBCL-GCB
Experimental: as §1, §2

[6] = tested on: MOLT-4 (Human T-cell leukemia)
Experimental: as §1, §2

[7] = tested on: NCI-H1650 (Human bronchioalveolar)
Experimental: as §1, §2

[8] = tested on: Pfeiffer (Human Diffuse Large B Cell Lymphoma -GCB); details: Human DLBCL-GCB
Experimental: as §1, §2

[9] = tested on: SW620 (Human Colorectal); details: SW-620
Experimental: as §1, §2

[10] = tested on: MDST8 (Human colorectal cancer)
Experimental: as §1, §2

[11] = tested on: H1693 (Human lung carcinoma); details: NCI-H1693
Experimental: as §1, §2

[12] = tested on: A172 (Human neuroblastoma); details: A 172
Experimental: as §1, §2

[13] = tested on: CA46 (Human Burkitt's lymphoma)
Experimental: as §1, §2

[14] = tested on: Namalwa (Human Burkitt's lymphoma)
Experimental: as §1, §2

[15] = tested on: U-118 MG (Human neuroblastoma)
Experimental: as §1, §2

[16] = tested on: H1734 (Human lung carcinoma); details: NCI-H1734
Experimental: as §1, §2

[17] = tested on: U937 (Human histiocytic lymphoma); details: U-937
Experimental: as §1, §2

[18] = tested on: ST486 (Human Burkitt's lymphoma)
Experimental: as §1, §2

[19] = tested on: DLD-1 (Human colorectal cancer)
Experimental: as §1, §2

[20] = tested on: SUDHL-6 (Human Diffuse Large B Cell Lymphoma -GCB); details: SU-DHL-6, Human DLBCL-GCB
Experimental: as §1, §2

[21] = tested on: NCI-H1666 (Human bronchioalveolar)
Experimental: as §1, §2

[22] = tested on: EB1 (Human Burkitt's lymphoma)
Experimental: as §1, §2

[23] = tested on: HCT-15 (Human Colorectal)
Experimental: as §1, §2

[24] = tested on: GA-10 (Human Burkitt's lymphoma)
Experimental: as §1, §2

[25] = tested on: HT (Human Diffuse Large B Cell Lymphoma -GCB); details: Human DLBCL-GCB
Experimental: as §1, §2

[26] = tested on: H460 (Human lung carcinoma); details: NCI-H460
Experimental: as §1, §2

[27] = tested on: SUDHL-10 (Human Diffuse Large B Cell Lymphoma -GCB); details: SU-DHL10, Human DLBCL-GCB
Experimental: as §1, §2

[28] = tested on: COLO-320DM (Human Colorectal)
Experimental: as §1, §2

[29] = tested on: NCI-1975 (Human lung carcinoma)
Experimental: as §1, §2

[30] = tested on: COLO-205 (Human Colorectal)
Experimental: as §1, §2

[31] = tested on: RKO (Human colorectal cancer)
Experimental: as §1, §2

[32] = tested on: GRANTA-519 (Human Mantle Cell Lymphoma)
Experimental: as §1, §2

[33] = tested on: RL (Human Follicular B Cell Lymphoma)
Experimental: as §1, §2

[34] = tested on: HH (Human T-cell lymphoma)
Experimental: as §1, §2

[35] = tested on: LOVO (Human Colorectal)
Experimental: as §1, §2

[36] = tested on: JeKo-1 (Human Mantle Cell Lymphoma)
Experimental: as §1, §2

[37] = tested on: KMH-2 (Human Hodgkin's lymphoma); details: KM-H2
Experimental: as §1, §2

[38] = tested on: HD-MyZ (Human Hodgkin's lymphoma)
Experimental: as §1, §2

[39] = tested on: L428 (Human Hodgkin's lymphoma); details: L-428
Experimental: as §1, §2

[40] = tested on: OCI-Ly19 (Human Diffuse Large B Cell Lymphoma -GCB); details: Human DLBCL-GCB
Experimental: as §1, §2

[41] = Homo sapiens, 72 h, 3-day CellTiterGlo assay

For `Cc1cccc(/C=N/Nc2cc(N3CCOCC3)nc(OCCc3ccccn3)n2)c1` [apilimod], the IC50 [1] was > 2500 nM, the IC50 [2] was 150 nM and the IC50 [3] was > 20 µM. The IC50 [4] was > 1000 nM, the IC50 [5] was 700 nM and the IC50 [6] was 3.3 µM. For the same molecule, the IC50 [7] was > 20 µM, the IC50 [8] was 2620 nM and the IC50 [9] was 90 nM. It also gave an IC50 [10] of 1000 nM, an IC50 [11] of 2000 nM and an IC50 [12] of 2000 nM. The IC50 [13] was > 10 µM, the IC50 [14] was 600 nM and the IC50 [15] was > 10 µM. For the same molecule, the IC50 [16] was 1500 nM, the IC50 [17] was 106 nM and the IC50 [18, 41] was < 100 nM. The IC50 ([18]; Human Burkitt's lymphoma) was 25 nM, the IC50 [19] was > 5 µM and the IC50 [20] was 80 nM. For the same molecule, the IC50 [21] was 20 µM, the IC50 [22] was 174 nM and the IC50 [23] was 200 nM. The IC50 [24] was 382 nM, the IC50 [25] was 642 nM and the IC50 [26] was > 2000 nM. For the same molecule, the IC50 [27] was 20 nM, the IC50 [28] was 2060 nM and the IC50 [29] was > 10 µM. The IC50 [30] was 380 nM, the IC50 [31] was > 5 µM and the IC50 [32] was > 10 µM. For the same molecule, the IC50 [33] was > 10 µM, the IC50 [34] was 3.3 µM and the IC50 [35] was > 10 µM. The IC50 [36, 41] was < 100 nM, the IC50 ([36]; Human Mantle Cell Lymphoma) was 70 nM and the IC50 [37] was 181 nM. For the same molecule, the IC50 [38] was > 1000 nM, the IC50 [39] was 10 µM and the IC50 [40] was 380 nM.
